The subject of assay [1] is NCI. Nature of the assay: Overall panel averaged growth inhibitory concentration against the U. S. National Cancer Institute panel of sixty human cancer cell lines. The class given is functional.
The test system of assay [2] is P388. Nature of the assay: In vitro inhibition of growth of p388 cells. Conditions: Mus musculus, read-out: ED50 (the source's name). The assay is classed as functional.

Converted amounts (≈) assume the structure as drawn. Where a SMILES comes first, the peptide text is derived from it.

In general, GI50 refers to the concentration at which growth is held to half of that of the control. As to `CC[C@H](C)[C@@H]1NC(=O)[C@@H]2CCCN2C(=O)[C@@H]2CCCN2C(=O)[C@H](C(C)C)NC(=O)[C@H](Cc2ccc(O)cc2)NC(=O)[C@@H]2CCCN2C(=O)[C@@H]2CCCN2C(=O)[C@H](CC(C)C)NC(=O)[C@H](C(C)C)NC(=O)[C@H](Cc2ccccc2)NC1=O` (cyclo(FVLPPYVPPI)), the GI50 in assay [1] is over 10 µM. Besides, the EC50 in assay [2] is 4.1 µg/mL (≈ 3.65 µM).
Consider `CC[C@H](C)[C@@H]1NC(=O)[C@@H]2CCCN2C(=O)[C@@H]2CCCN2C(=O)[C@H]([C@@H](C)CC)NC(=O)[C@H](Cc2ccc(O)cc2)NC(=O)[C@@H]2CCCN2C(=O)[C@@H]2CCCN2C(=O)[C@H](CC(C)C)NC(=O)[C@H](C)NC(=O)[C@H](Cc2ccccc2)NC1=O` (cyclo(ALPPYIPPIF)), for which the GI50 in assay [1] is 0.55 µM. Further, the EC50 in assay [2] was 3 µg/mL (≈ 2.7 µM).
Take `CC[C@H](C)[C@@H]1NC(=O)[C@@H]2CCCN2C(=O)[C@@H]2CCCN2C(=O)[C@H]([C@@H](C)CC)NC(=O)[C@H](Cc2ccc(O)cc2)NC(=O)[C@@H]2CCCN2C(=O)[C@@H]2CCCN2C(=O)[C@H](CC(C)C)NC(=O)[C@H](C(C)C)NC(=O)[C@H](Cc2ccccc2)NC1=O` (cyclo(FVLPPYIPPI)): the GI50 in assay [1] was over 10 µM. Further, in assay [2], the EC50 came to 2.9 µg/mL (≈ 2.55 µM).

(Values after ChEMBL document CHEMBL1128751, “Isolation and structure of the human cancer cell growth inhibitory cyclic decapeptides phakellistatins 7, 8 and 91,2” (1995).)
